The record followed here is ChEMBL document CHEMBL5550106, “Recent advances in the exploration of oxazolidinone scaffolds from compound development to antibacterial agents and other bioactivities” (Eur J Med Chem, 2024).

≈ marks a conversion by molar mass, not a printed value.

Common to all, as to type: functional
Test [1] deals with Mycobacterium tuberculosis. Kind of test: Antitubercular activity against XDR Mycobacterium tuberculosis X24 assessed as bacterial growth inhibition measured for 9 days. The note with it: X24, 216 h, time 9 day.
The subject of test [2] is Staphylococcus aureus. The test can be described thus: Antimicrobial activity against […] Staphylococcus aureus ATCC 25923 assessed as reduction in cell growth by microdilution method.
Test [3] relates to Enterococcus faecalis. The test can be described thus: Antibacterial activity against vancomycin-resistant Enterococcus faecalis NR 31912 assessed as inhibition of bacterial growth.
Test [4] concerns Staphylococcus aureus. Kind of test: Antibacterial activity against Methicillin-sensitive Staphylococcus aureus ATCC 9144 assessed as reduction in bacterial growth.
For test [5], the system named is Mycobacterium tuberculosis. Kind of test: Antibacterial activity against Mycobacterium tuberculosis H37Rv assessed as bacterial growth inhibition incubated for 8 days by resazurin assay. The note with it: 192 h, time 8 day. For orientation: Alamar Blue is a resazurin reagent that responds to reducing activity.
Test [6] relates to Staphylococcus aureus. The test can be described thus: Antibacterial activity against Methicillin-resistant Staphylococcus aureus ATCC 33592 assessed as reduction in bacterial growth.
A further test concerns Enterococcus faecium. The test can be described thus: Antibacterial activity against vancomycin-resistant Enterococcus faecium assessed as reduction in microbial growth CLSI-based double dilution method.
Test [7] relates to Staphylococcus aureus. Kind of test: Antibacterial activity against methicillin-sensitive Staphylococcus aureus assessed as reduction in bacterial growth incubated for 24 hrs by broth microdilution method.
For the next test, the system named is Haemophilus influenzae. Kind of test: Antibacterial activity against Haemophilus influenzae assessed as bacterial growth inhibition.
Test [8] concerns Mycobacterium tuberculosis. The test can be described thus: Antimycobacterial activity against Mycobacterium tuberculosis H37Rv assessed as bacterial growth inhibition incubated for 7 days by fluorescence based analysis. The note with it: 168 h, time 7 day.
In test [9] the test system is Enterococcus faecalis. The test can be described thus: Antibacterial activity against vancomycin-resistant Enterococcus faecalis incubated for 18 hrs by broth microdilution method. Background: Dilution methods test growth across graded concentrations, often in twofold steps.
The test system of test [10] is Mycobacterium tuberculosis. Kind of test: Antimycobacterial activity against Mycobacterium tuberculosis H37Rv assessed as reduction in bacterial growth measured for 7 days by resazurin dye based assay. The note with it: 168 h, time 7 day.
Test [11] relates to Staphylococcus aureus. The test can be described thus: Antimicrobial activity against […] Staphylococcus aureus ATCC 25923 assessed as reduction in microbial growth.
For test [12], the system named is Staphylococcus aureus. The test can be described thus: Antimicrobial activity against Methicillin-sensitive Staphylococcus aureus ATCC 29213 assessed as reduction in bacterial growth.
For test [13], the system named is Staphylococcus aureus. The test can be described thus: Antibacterial activity against Methicillin-resistant Staphylococcus aureus assessed as fold reduction in bacterial growth incubated for 14 to 16 hrs by microbroth dilution method. The note with it: time 14-16 hrs.

For `CN1CCN(c2ccc(N3C[C@H](CO)OC3=O)cc2F)C=N1` [DELPAZOLID], the MIC90 in test [1] came to 0.5 µg/mL (≈ 1.62 µM); with Staphylococcus aureus [2], 1 µg/mL; in the test on Enterococcus faecalis [3] it was 0.5 µg/mL (≈ 1.62 µM); in the test with Staphylococcus aureus [4], 1 µg/mL (≈ 3.24 µM).

On to `O=C([C@@H](O)CO)N1CC=C(c2c(F)cc(N3C[C@H](COc4ccon4)OC3=O)cc2F)CC1` [POSIZOLID], for which the MIC90 in [5] amounted to 1 µg/mL (≈ 2.15 µM).

Regarding `CC(=O)NC[C@H]1CN(c2ccc(-c3ccc(CNCc4cnn[nH]4)cc3)c(F)c2)C(=O)O1` [RADEZOLID], the MIC90 came to 0.5 µg/mL (≈ 1.14 µM) with Staphylococcus aureus [6], 0.5 µg/mL in the test with Enterococcus faecium, 0.5 µg/mL (≈ 1.14 µM) in the test on Staphylococcus aureus [7] and 0.5 µg/mL (≈ 1.14 µM) in the test on Haemophilus influenzae.

The term MIC denotes the lowest concentration that inhibits growth of the organism. In the case of `CC(=O)NC[C@H]1CN(c2ccc(N3CCSCC3)c(F)c2)C(=O)O1` [SUTEZOLID], the MIC in [8] is 0.03 µg/mL (≈ 0.0849 µM).

`Cn1nnc(-c2ccc(-c3ccc(N4C[C@H](COP(=O)(O)O)OC4=O)cc3F)cn2)n1` [TEDIZOLID PHOSPHATE]: the MIC90 in the test with Enterococcus faecalis [9] was found to be 0.12 µg/mL; in test [10], 0.125 µg/mL; in the test with Staphylococcus aureus [11], 0.12 µg/mL; in the test on Staphylococcus aureus [12], 0.12 µg/mL.

Take `Cn1nnc(-c2ccc(-c3ccc(N4C[C@H](CO)OC4=O)cc3F)cn2)n1` [TEDIZOLID]: the MIC90 in the test on Enterococcus faecalis [9] is 0.5 µg/mL (≈ 1.35 µM); with Staphylococcus aureus [11] it was 0.25 µg/mL; in the test on Staphylococcus aureus [12] it was 0.25 µg/mL (≈ 0.675 µM). For the same compound, in the test on Staphylococcus aureus [13], the “fold change (FC)” value amounted to 4.
